The record followed here is ChEMBL document CHEMBL1123117, “Synthesis and antiinflammatory and analgesic activity of 5-aroyl-1,2-dihydro-3H-pyrrolo[1,2-a]pyrrole-1-carboxylic acids and related compounds” (J Med Chem, 1985).

A short description of data set [1]: physchem. The following applies: octanol/water.
Description: Partition coefficient (logP) (HPLC)
A short description of data set [2]: physchem.
Description: Dissociation constant (pKa)
The species named for data set [3] is Rattus norvegicus. In words: animal or person.
Description: Effective dose for rat paw assay
Data set [4] is filed under the species Mus musculus. In words: animal or person.
Description: Effective dose for mouse writhing assay
The species entered for data set [5] is Rattus norvegicus. The experiment in a line: animal or person. As to conditions: 168 h.
Description: Effective dose causing 50 % gastrointestinal erosion using seven-day chronic assay.
Data set [6] in a line: Therapeutic ratio as the ratio of MED value to that of ED30 for the carrageenan rat paw assay. The data set is classed as ADME. The following applies: read-out: Therapeutic ratio. A general note: Carrageenan injected into the paw causes an acute inflammation.
For data set [7], the species on record is Rattus norvegicus. The experiment in a line: animal or person. The source holds these as a separate data set.
Description: Effective dose for cotton pellet assay
The species entered for data set [8] is Rattus norvegicus. In words: animal or person. The source holds these as a separate data set.
Description: Effective dose for adjuvant arthritis assay
The species entered for data set [9] is Rattus norvegicus. The experiment in a line: animal or person. The following applies: 168 h, read-out: MED.
Description: Minimum effective dose causing gastrointestinal erosion using seven-day chronic assay.
The species entered for data set [10] is Mus musculus. In words: […] activity using mouse writhing assay. In kind it is functional.
A short description of a further data set: in vivo. The following applies: rat.
For data set [11], the species on record is Rattus norvegicus. In words: Antiinflammatory activity using adjuvant arthritis assay. The data set is classed as functional.

Regarding `N#Cc1ccc(C(=O)c2ccc3n2CCC3C(=O)O)cc1` (configuration not stated), the log partition coefficient (logP) in the data set “physchem [1]” was 2.21.
With `O=C(c1cccc(Cl)c1)c1ccc2n1CCC2C(=O)O` (configuration not stated), in the data set “physchem [2]”, the pKa was found to be 3.44. This molecule also yielded a logP in “physchem [1]” of 3.48.
Turning to `CSc1ccc(C(=O)c2ccc3n2CCCCC3C(=O)O)cc1` (configuration not stated), in the data set “physchem [1]”, the logP turned out to be 3.92.
On to `O=C(c1ccc(F)cc1)c1ccc2n1CCCCC2C(=O)O` (configuration not stated), for which, in “physchem [1]”, the logP worked out at 3.32.
In the case of `C#Cc1ccc(C(=O)c2ccc3n2CCC3C(=O)O)cc1` (configuration not stated), the lipophilicity (logP) in the data set “physchem [1]” turned out to be 3.33.
For the molecule `C[S+]([O-])c1ccc(C(=O)c2ccc3n2CCC3C(=O)O)cc1` (configuration not stated), the log partition coefficient (logP) in the data set “physchem [1]” was 1.08.
For `O=C(c1ccc2c(c1)OCO2)c1ccc2n1CCC2C(=O)O` (configuration not stated), in the data set “physchem [1]”, the lipophilicity (logP) was determined as 3.61.
The same measure, in the same setting: in the case of `O=C(c1ccccc1)c1ccc2n1CCCCC2C(=O)O` (configuration not stated) it was 3.17; in that of `O=C(Cc1ccccc1)c1ccc2n1CCC2C(=O)O` (configuration not stated), 2.52; in that of `CC(C)C(=O)Nc1cccc(C(=O)c2ccc3n2CCC3C(=O)O)c1` (configuration not stated), 2.57.
As to `O=C(c1ccc(O)cc1)c1ccc2n1CCC2C(=O)O` (configuration not stated) [P-HYDROXY KETOROLAC], in “physchem [1]”, the logP amounted to 2.17.
In turn, `O=C(c1cccc(C(F)(F)F)c1)c1ccc2n1CCC2C(=O)O` (configuration not stated) displayed a logP in the data set “physchem [1]” of 3.69.
Regarding `C=CCOc1ccc(C(=O)c2ccc3n2CCC3C(=O)O)cc1` (configuration not stated), the logP in the data set “physchem [1]” is 3.48.
In turn, `CC(C)(C)C(=O)c1ccc2n1CCC2C(=O)O` (configuration not stated) registered a pKa in “physchem [2]” of 3.57. The logP in the data set “physchem [1]” was found to be 2.6.
`O=C(c1ccc2n1CCC2C(=O)O)C1CCC1` (configuration not stated) had a pKa in the data set “physchem [2]” of 3.54. For the same molecule, in “physchem [1]”, the logP was determined as 2.41.
`Cc1ccc(C(=O)c2ccc3n2CCC3C(=O)O)cc1` (configuration not stated): the pKa in the data set “physchem [2]” was 3.44. The ED30 in the data set filed under Rattus norvegicus [3] was found to be 15 mg/kg; in the data set filed under Rattus norvegicus [7] it was 3 mg/kg. Besides, the ED50 was determined as 70 mg/kg in the data set listed under Mus musculus [4], 15 mg/kg/day in the data set filed under Rattus norvegicus [5] and 1.7 mg/kg in the data set listed under Rattus norvegicus [8]. In addition, in data set [6], the selectivity ratio is 8. Also, in the data set “physchem [1]”, the logP amounted to 3.24. Further, the minimal effective dose in the data set filed under Rattus norvegicus [9] stood at 3 mg/kg/day.
For the molecule `O=C(c1ccc(C(F)(F)F)cc1)c1ccc2n1CCC2C(=O)O` (configuration not stated), the log partition coefficient (logP) in “physchem [1]” is 3.71.
The same measure, in the same setting: as for `O=C(c1cccc(Cl)c1)c1ccc2n1CCCC2C(=O)O` (configuration not stated), the figure is 2.61; as for `O=C(c1ccc(F)cc1F)c1ccc2n1CCC2C(=O)O` (configuration not stated), 2.59.
On to `O=C(c1ccc2ccccc2c1)c1ccc2n1CCC2C(=O)O` (configuration not stated), for which the pKa in the data set “physchem [2]” came to 3.44. Further, the lipophilicity (logP) in the data set “physchem [1]” was determined as 3.97.
In “physchem [2]”, `CCOc1cccc(C(=O)c2ccc3n2CCC3C(=O)O)c1` (configuration not stated) gave a pKa of 3.46. This molecule also yielded a logP in “physchem [1]” of 3.31.
In the case of `O=C(c1c(F)cccc1F)c1ccc2n1CCC2C(=O)O` (configuration not stated), the logP in the data set “physchem [1]” was determined as 2.47.
Consider `O=C(c1ccc(-c2ccccc2)cc1)c1ccc2n1CCC2C(=O)O` (configuration not stated), for which the logP in the data set “physchem [1]” was 4.27.
Consider `O=C(c1c(F)c(F)c(F)c(F)c1F)c1ccc2n1CCC2C(=O)O` (configuration not stated), for which the logP in the data set “physchem [1]” was 3.24.
Take `O=C(c1ccccc1Cl)c1ccc2n1CCC2C(=O)O` (configuration not stated): in the data set “physchem [2]”, the pKa was found to be 4.33. In “physchem [1]”, this molecule returned a logP of 2.71.
Regarding `O=C(c1ccc(F)cc1)c1ccc2n1CCCC2C(=O)O` (configuration not stated), in the data set “physchem [1]”, the logP came out at 2.94.
The molecule `CC(C)Oc1ccc(C(=O)c2ccc3n2CCC3C(=O)O)cc1` (configuration not stated) displayed a pKa in “physchem [2]” of 3.43. In “physchem [1]”, this molecule yielded a log partition coefficient (logP) of 3.38.
`CS(=O)(=O)c1ccc(C(=O)c2ccc3n2CCCC3C(=O)O)cc1` (configuration not stated) yielded a logP in the data set “physchem [1]” of 1.53.
Same read-out and setting: in the case of `CSc1ccc(C(=O)c2ccc3n2CCC3C(=O)O)cc1` (configuration not stated) it was 3.68.
In the case of `CSc1ccc(C(=O)c2ccc3n2CCCC3C(=O)O)cc1` (configuration not stated), in “physchem [1]”, the logP was found to be 3.54.
Molecule `O=C(c1ccccc1O)c1ccc2n1CCC2C(=O)O` (configuration not stated) gave a logP in “physchem [1]” of 2.94.
In “physchem [1]”, `Cc1ccc(C(=O)c2ccc3n2CCCC3C(=O)O)cc1` (configuration not stated) displayed a lipophilicity (logP) of 3.35.
`COc1ccc(C(=O)c2ccc3n2CCCC3C(=O)O)cc1` (configuration not stated) showed a logP in the data set “physchem [1]” of 2.9.
Regarding `O=C(c1cccc(F)c1)c1ccc2n1CCC2C(=O)O` (configuration not stated), the pKa in “physchem [2]” is 3.46. This molecule returned a logP in “physchem [1]” of 2.9.
For `Cc1ccccc1C(=O)c1ccc2n1CCC2C(=O)O` (configuration not stated), the pKa in “physchem [2]” came out at 3.44. Moreover, the logP in the data set “physchem [1]” turned out to be 2.9.
As for `O=C(c1cccc([N+](=O)[O-])c1)c1ccc2n1CCC2C(=O)O` (configuration not stated), the lipophilicity (logP) in the data set “physchem [1]” amounted to 2.47.
Turning to `C#CCOc1ccc(C(=O)c2ccc3n2CCC3C(=O)O)cc1` (configuration not stated), in the data set “physchem [1]”, the logP is 3.63.
For the molecule `C=Cc1ccc(C(=O)c2ccc3n2CCC3C(=O)O)cc1` (configuration not stated), the ED30 in the data set listed under Rattus norvegicus [3] stood at 15 mg/kg; in the data set filed under Rattus norvegicus [7], 3 mg/kg. Besides, the 50% effective dose (ED50) came to 70 mg/kg in the data set listed under Mus musculus [4], 13 mg/kg/day in the data set filed under Rattus norvegicus [5] and 1.7 mg/kg in the data set filed under Rattus norvegicus [8]. In the data set “physchem [1]”, this molecule gave a log partition coefficient (logP) of 3.47. This molecule also had an Activity in the data set filed under Mus musculus [10] of roughly 200. Further, in the data set listed under Rattus norvegicus [9], the minimal effective dose was 5 mg/kg/day. Also, in “in vivo”, the selectivity ratio was determined as 18.
`O=C(c1ccc(Cl)cc1)c1ccc2n1CCCC2C(=O)O` (configuration not stated) gave a lipophilicity (logP) in the data set “physchem [1]” of 3.6.
As to `O=C(c1ccccc1I)c1ccc2n1CCC2C(=O)O` (configuration not stated), the logP in the data set “physchem [1]” was found to be 2.98.
For the molecule `O=C(c1cccc(O)c1)c1ccc2n1CCC2C(=O)O` (configuration not stated), the log partition coefficient (logP) in the data set “physchem [1]” turned out to be 2.18.
For `COc1ccc(C(=O)c2ccc3n2CCC3C(=O)O)cc1` (configuration not stated) [ANIROLAC], in “physchem [2]”, the pKa is 3.55. Further, the ED30 in the data set listed under Rattus norvegicus [3] is 15 mg/kg; in the data set filed under Rattus norvegicus [7], 3 mg/kg. Also, the results for the 50% effective dose (ED50) in the data set filed under Mus musculus [4], in the data set listed under Rattus norvegicus [5] and in the data set listed under Rattus norvegicus [8] were 70 mg/kg, 22 mg/kg/day and 1.7 mg/kg, respectively. For the same molecule, the logP in the data set “physchem [1]” was found to be 2.81. Further, in the data set filed under Rattus norvegicus [9], the minimal effective dose was determined as 7 mg/kg/day. The selectivity ratio in “in vivo” stood at 39.
As to `O=C(c1ccc(Cl)cc1Cl)c1ccc2n1CCC2C(=O)O` (configuration not stated), the lipophilicity (logP) in “physchem [1]” is 3.56.
With `Cc1cccc(C(=O)c2ccc3n2CCC3C(=O)O)c1` (configuration not stated), the pKa in the data set “physchem [2]” turned out to be 3.44. This molecule came in with a logP in “physchem [1]” of 3.23.
In “physchem [2]”, `O=C(c1ccc(F)cc1)c1ccc2n1CCC2C(=O)O` (configuration not stated) gave a pKa of 3.51. Also, the ED30 in the data set filed under Rattus norvegicus [3] was determined as 15 mg/kg; in the data set listed under Rattus norvegicus [7], 3 mg/kg. Also, the values for the ED50 in the data set filed under Mus musculus [4], in the data set listed under Rattus norvegicus [5] and in the data set filed under Rattus norvegicus [8] were 70 mg/kg, 13 mg/kg/day and 1.7 mg/kg, respectively. Besides, in the data set “physchem [1]”, the lipophilicity (logP) came out at 2.82. Also, the Activity in the data set listed under Rattus norvegicus [11] turned out to be 1. Besides, the minimal effective dose in the data set filed under Rattus norvegicus [9] turned out to be 5 mg/kg/day. In addition, the selectivity ratio in “in vivo” came out at 20.
Turning to `O=C(c1ccccc1)c1ccc2n1CC(C(=O)O)C2` (configuration not stated), in “physchem [1]”, the logP was 2.57.
In “physchem [1]”, `O=C(c1ccc(Cl)cc1)c1ccc2n1CC(C(=O)O)C2` (configuration not stated) registered a logP of 3.45.
The molecule `N#Cc1cccc(C(=O)c2ccc3n2CCC3C(=O)O)c1` (configuration not stated) yielded a logP in the data set “physchem [1]” of 2.14.
The molecule `O=C(c1ccc(Br)cc1)c1ccc2n1CCC2C(=O)O` (configuration not stated) returned a lipophilicity (logP) in “physchem [1]” of 3.6.
Molecule `CCOc1ccc(C(=O)c2ccc3n2CCC3C(=O)O)cc1` (configuration not stated) registered a pKa in the data set “physchem [2]” of 3.46. The molecule also showed a logP in the data set “physchem [1]” of 3.3.
For the molecule `CS(=O)(=O)c1ccc(C(=O)c2ccc3n2CCC3C(=O)O)cc1` (configuration not stated), in “physchem [1]”, the logP was 1.41.
For `O=C(c1ccc([N+](=O)[O-])cc1)c1ccc2n1CCC2C(=O)O` (configuration not stated), the logP in the data set “physchem [1]” turned out to be 2.48.
`O=C(c1ccccc1)c1ccc2n1CCC2C(=O)O` (configuration not stated) [KETOROLAC] had a pKa in “physchem [2]” of 3.49. The ED30 in the data set listed under Rattus norvegicus [3] amounted to 15 mg/kg; in the data set filed under Rattus norvegicus [7], 3 mg/kg. Also, the values for the ED50 in the data set filed under Mus musculus [4], in the data set filed under Rattus norvegicus [5] and in the data set filed under Rattus norvegicus [8] were 70 mg/kg, 13 mg/kg/day and 1.7 mg/kg, respectively. The selectivity ratio in data set [6] was 18. This molecule also returned a lipophilicity (logP) in the data set “physchem [1]” of 2.72. For the same molecule, the minimal effective dose in the data set listed under Rattus norvegicus [9] amounted to 5 mg/kg/day.
For the molecule `CC(=O)c1ccc(C(=O)c2ccc3n2CCC3C(=O)O)cc1` (configuration not stated), the log partition coefficient (logP) in “physchem [1]” was 2.27.
In the case of `COc1cccc(C(=O)c2ccc3n2CCC3C(=O)O)c1` (configuration not stated), the lipophilicity (logP) in the data set “physchem [1]” came to 2.74.

A word on the logP: it is the decadic logarithm of the partition coefficient of the neutral form, usually between octanol and water. As a reminder, the pKa is the pH at which an ionisable group is half protonated. For orientation: ED50 means the dose that gives a 50% effect, or the effect in half of the subjects.
